Laboratory results published in patent US10807970B2 (priority 2016, dated 2020).

target: human σ1 receptor (Homo sapiens, UniProt Q99720); assay: Human σ1 receptor radioligand assay ([3H](+)-pentazocine, transfected HEK-293 membranes); assay type: binding; parameters: μ and σ1 dual binding: key to the marks not given beside the values; conditions: one class symbol for both Ki-σ1 (human σ1 receptor, A1) and Ki-μ (human μ-opioid receptor, A2)
In short: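 Membranes from HEK-293 cells transfected with human σ1 receptor (7 μg) incubated with 5 nM [3H](+)-pentazocine in 50 mM Tris-HCl pH 8, 120 min at 37° C. Non-specific binding defined with 10 μM haloperidol. Bound radioligand separated by filtration, washed with ice-cold 10 mM Tris-HCl pH 7.4, and counted by scintillation.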

human σ1 receptor, sequence (Q99720 whole entry): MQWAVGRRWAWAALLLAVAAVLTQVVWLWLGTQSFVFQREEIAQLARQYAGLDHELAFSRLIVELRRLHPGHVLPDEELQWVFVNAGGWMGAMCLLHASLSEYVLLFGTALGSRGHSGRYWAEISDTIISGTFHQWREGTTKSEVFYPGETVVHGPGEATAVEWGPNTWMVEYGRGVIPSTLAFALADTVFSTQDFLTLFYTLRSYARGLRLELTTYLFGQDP

Row | Compound | μ and σ1 dual binding
1 | CCC1(N2CCN(CCc3ccncc3F)CC2)CCOC(C)(C)C1 (centres unmarked) [Example 84, 1-(4-ethyl-2,2-dimethyltetrahydro-2H-pyran-4-yl)-4-(2-(3-fluoropyridin-4-yl)ethyl)piperazine] | ++
2 | CCC1(N2CCN(CCc3ccccn3)CC2)CCOC(C)(C)C1 (centres unmarked) [Example 87, 1-(4-ethyl-2,2-dimethyltetrahydro-2H-pyran-4-yl)-4-(2-(pyridin-2-yl)ethyl)piperazine] | ++
3 | CC(C)(O)CCN1CCN(C2(C(=O)c3ccccn3)CCOC(C)(C)C2)CC1 (centres unmarked) [Example 90, (4-(4-(3-hydroxy-3-methylbutyl)piperazin-1-yl)-2,2-dimethyltetrahydro-2H-pyran-4-yl)(pyridin-2-yl)methanone] | ++
4 | CC(C)OCCN1CCN([C@@]2(C(=O)c3ccccn3)CCO[C@H](C)C2)CC1 [Example 95] | ++
5 | CC(C)CCN1CCN([C@@]2(C(=O)c3ccccn3)CCO[C@H](C)C2)CC1 [Example 97] | ++
6 | CC(C)C1(N2CCN(CCc3cccc(F)c3F)CC2)CCOC(C)(C)C1 (centres unmarked) [Example 101, 1-(2,3-difluorophenethyl)-4-(4-isopropyl-2,2-dimethyltetrahydro-2H-pyran-4-yl)piperazine] | ++
7 | CC(C)CN1CCC(C2(C(=O)c3ccccn3)CCOC(C)(C)C2)CC1 (centres unmarked) [Example 102, (4-(1-isobutylpiperidin-4-yl)-2,2-dimethyltetrahydro-2H-pyran-4-yl)(pyridin-2-yl)methanone] | ++
8 | CCOCCN1CCC(C2(C(=O)c3ccccn3)CCOC(C)(C)C2)CC1 (centres unmarked) [Example 104] | ++
9 | CC1(C)CC(C(=O)c2ccccn2)(C2CCN(Cc3ccc(F)cc3)CC2)CCO1 (centres unmarked) [Example 109, (4-(1-(4-fluorobenzyl)piperidin-4-yl)-2,2-dimethyltetrahydro-2H-pyran-4-yl)(pyridin-2-yl)methanone] | ++
10 | CC1(C)CC(C(=O)c2ccccn2)(C2CCN(Cc3ccccc3F)CC2)CCO1 (centres unmarked) [Example 110, (4-(1-(2-fluorobenzyl)piperidin-4-yl)-2,2-dimethyltetrahydro-2H-pyran-4-yl)(pyridin-2-yl)methanone] | ++
11 | CC[C@@]1(N2CCN(CCc3ccccc3)CC2)CCOC(C)(C)C1 [Example 113, (R) 1-(4-ethyl-2,2-dimethyltetrahydro-2H-pyran-4-yl)-4-phenethylpiperazine] | ++
12 | c1ccc(C2(N3CCN(Cc4cccnc4)CC3)CCOC3(CCCC3)C2)cc1 (centres unmarked) [Example 119, 1-(9-phenyl-6-oxaspiro[4.5]decan-9-yl)-4-(pyridin-3-ylmethyl)piperazine] | ++
13 | c1ccc(C2(N3CCN(Cc4ccccn4)CC3)CCOC3(CCCC3)C2)cc1 (centres unmarked) [Example 120, 1-(9-phenyl-6-oxaspiro[4.5]decan-9-yl)-4-(pyridin-2-ylmethyl)piperazine] | ++
14 | N#Cc1cccc(CN2CCN(C3(c4ccccc4)CCOC4(CCCC4)C3)CC2)c1 (centres unmarked) [Example 121, 3-((4-(9-phenyl-6-oxaspiro[4.5]decan-9-yl)piperazin-1-yl)methyl)benzonitrile] | ++
15 | CC(C)CN1CCN(C2(Cc3ccccc3)CCOC3(CCCC3)C2)CC1 (centres unmarked) [Example 123, 1-(9-benzyl-6-oxaspiro[4.5]decan-9-yl)-4-isobutylpiperazine] | ++
16 | c1ccc(CN2CCC(C3(c4ccccn4)CCOCC3)CC2)cc1 [Example 124, 2-(4-(1-benzylpiperidin-4-yl)tetrahydro-2H-pyran-4-yl)pyridine] | ++

same assay, conditions: one class symbol for both Ki-σ1 (human σ1 receptor, A1) and Ki-μ (human μ-opioid receptor, A2); read-out: μ and σ1 dual binding

Row | Compound | Ki [nM]
17 | CC(C)OCCN1CCN([C@]2(C(=O)c3ccccn3)CCO[C@@H](C)C2)CC1 [Example 96] | > 500
18 | CC(C)CCN1CCN([C@]2(C(=O)c3ccccn3)CCO[C@@H](C)C2)CC1 [Example 98] | < 500
19 | CCOCCCN1CCC(C2(C(=O)c3ccccn3)CCOC(C)(C)C2)CC1 (centres unmarked) [Example 103] | > 500
20 | CC[C@]1(N2CCN(CCc3ccccc3)CC2)CCOC(C)(C)C1 [Example 112, (S)-1-(4-ethyl-2,2-dimethyltetrahydro-2H-pyran-4-yl)-4-phenethylpiperazine] | < 500

same assay, conditions: μ and σ1 dual binding, one class symbol for both Ki-σ1 (human σ1 receptor, A1) and Ki-μ (human μ-opioid receptor, A2)

Row | Compound | Ki [nM]
21 | CC1(C)CC(C(=O)c2ccccn2)(N2CCN(CCc3ccncc3F)CC2)CCO1 (centres unmarked) [Example 85, (4-(4-(2-(3-fluoropyridin-4-yl)ethyl)piperazin-1-yl)-2,2-dimethyltetrahydro-2H-pyran-4-yl)(pyridin-2-yl)methanone] | < 500
22 | CC(C)CCN1CCCN(C2(C(=O)c3ccccn3)CCOC(C)(C)C2)CC1 (centres unmarked) [Example 86, (4-(4-isopentyl-1,4-diazepan-1-yl)-2,2-dimethyltetrahydro-2H-pyran-4-yl)(pyridin-2-yl)methanone] | < 100
23 | CC(C)OCCN1CCCN(C2(C(=O)c3ccccn3)CCOC(C)(C)C2)CC1 (centres unmarked) [Example 88, (4-(4-(2-isopropoxyethyl)-1,4-diazepan-1-yl)-2,2-dimethyltetrahydro-2H-pyran-4-yl)(pyridin-2-yl)methanone] | < 500
24 | CC(C)C1(N2CCN(CCc3ccccc3F)CC2)CCOC(C)(C)C1 (centres unmarked) [Example 89, 1-(2-fluorophenethyl)-4-(4-isopropyl-2,2-dimethyltetrahydro-2H-pyran-4-yl)piperazine] | < 500
25 | CC(C)C1(N2CCN(CCc3cccc(F)c3)CC2)CCOC(C)(C)C1 (centres unmarked) [Example 91, 1-(3-fluorophenethyl)-4-(4-isopropyl-2,2-dimethyltetrahydro-2H-pyran-4-yl)piperazine] | < 500
26 | CC(C)C1(N2CCN(CCc3cc(F)ccc3F)CC2)CCOC(C)(C)C1 (centres unmarked) [Example 92, 1-(2,5-difluorophenethyl)-4-(4-isopropyl-2,2-dimethyltetrahydro-2H-pyran-4-yl)piperazine] | < 500
27 | CCC1(N2CCN(CCc3cccc(F)c3)CC2)CCOC(C)(C)C1 (centres unmarked) [Example 93, 1-(4-ethyl-2,2-dimethyltetrahydro-2H-pyran-4-yl)-4-(3-fluorophenethyl)piperazine] | < 500
28 | CCC1(N2CCN(CCc3ccccc3F)CC2)CCOC(C)(C)C1 (centres unmarked) [Example 94, 1-(4-ethyl-2,2-dimethyltetrahydro-2H-pyran-4-yl)-4-(2-fluorophenethyl)piperazine] | < 500
29 | CCC1(N2CCN(CCc3cc(F)ccc3F)CC2)CCOC(C)(C)C1 (centres unmarked) [Example 99, 1-(2,5-difluorophenethyl)-4-(4-ethyl-2,2-dimethyltetrahydro-2H-pyran-4-yl)piperazine] | < 500
30 | CCC1(N2CCN(CCc3cccc(F)c3F)CC2)CCOC(C)(C)C1 (centres unmarked) [Example 100, 1-(2,3-difluorophenethyl)-4-(4-ethyl-2,2-dimethyltetrahydro-2H-pyran-4-yl)piperazine] | < 500
31 | CC(C)OCCCN1CCC(C2(C(=O)c3ccccn3)CCOC(C)(C)C2)CC1 (centres unmarked) [Example 107, (4-(1-(3-isopropoxypropyl)piperidin-4-yl)-2,2-dimethyltetrahydro-2H-pyran-4-yl)(pyridin-2-yl)methanone] | > 500
32 | CC1(C)CC(C(=O)c2ccccn2)(C2CCN(Cc3cccc(F)c3)CC2)CCO1 (centres unmarked) [Example 108, (4-(1-(3-fluorobenzyl)piperidin-4-yl)-2,2-dimethyltetrahydro-2H-pyran-4-yl)(pyridin-2-yl)methanone] | < 500
33 | CC1(C)CC(C(=O)c2ccccn2)(N2CCN(CCc3ccccc3F)CC2)CCO1 (centres unmarked) [Example 111, (4-(4-(2-fluorophenethyl)piperazin-1-yl)-2,2-dimethyltetrahydro-2H-pyran-4-yl)(pyridin-2-yl)methanone] | < 500
34 | CC(C)CCN1CCC([C@]2(C(=O)c3ccccn3)CCOC(C)(C)C2)CC1 [Example 114, (S)-(4-(1-isopentylpiperidin-4-yl)-2,2-dimethyltetrahydro-2H-pyran-4-yl)(pyridin-2-yl)methanone] | < 500
35 | CC(C)CCN1CCC([C@@]2(C(=O)c3ccccn3)CCOC(C)(C)C2)CC1 [Example 115, (R)-(4-(1-isopentylpiperidin-4-yl)-2,2-dimethyltetrahydro-2H-pyran-4-yl)(pyridin-2-yl)methanone] | < 500
36 | CC(C)(F)COCCN1CCN(C2(C(=O)c3ccccn3)CCOC(C)(C)C2)CC1 (centres unmarked) [Example 116, (4-(4-(2-(2-fluoro-2-methylpropoxy)ethyl)piperazin-1-yl)-2,2-dimethyltetrahydro-2H-pyran-4-yl)(pyridin-2-yl)methanone] | < 500
37 | CC(C)(F)CCN1CCN(C2(C(=O)c3ccccn3)CCOC(C)(C)C2)CC1 (centres unmarked) [Example 117, (4-(4-(3-fluoro-3-methylbutyl)piperazin-1-yl)-2,2-dimethyltetrahydro-2H-pyran-4-yl)(pyridin-2-yl)methanone] | < 500
38 | C=C(C)CCN1CCN(C2(C(=O)c3ccccn3)CCOC(C)(C)C2)CC1 (centres unmarked) [Example 118, (2,2-Dimethyl-4-(4-(3-methylbut-3-enyl)piperazin-1-yl)tetrahydro-2H-pyran-4-yl)(pyridin-2-yl)methanone] | < 500
39 | c1ccc(CC2(N3CCN(Cc4cccnc4)CC3)CCOC3(CCCC3)C2)cc1 (centres unmarked) [Example 122, 1-(9-benzyl-6-oxaspiro[4.5]decan-9-yl)-4-(pyridin-3-ylmethyl)piperazine] | < 500
40 | CC1(C)CC(c2ccccn2)(C2CCN(Cc3ccccc3)CC2)CCO1 (centres unmarked) [Example 125, 2-(4-(1-benzylpiperidin-4-yl)-2,2-dimethyltetrahydro-2H-pyran-4-yl)pyridine] | > 500
41 | CC(C)CN1CCC(C2(c3ccccn3)CCOC(C)(C)C2)CC1 (centres unmarked) [Example 126, 2-(4-(1-isobutylpiperidin-4-yl)-2,2-dimethyltetrahydro-2H-pyran-4-yl)pyridine] | > 500
